Reference: patent US5547975A, “Benzopyranopyrazolyl derivatives for the treatment of inflammation” (priority 1994, dated 1996)

Columns and labels:
[1] = biological target: T1, Human COX II (Homo sapiens, UniProt P35354); assay: Evaluation of COX II activity in vitro (recombinant enzyme, PGE2 ELISA); type: biochemical; details: 10 μM arachidonic acid, pre-incubation 10-20 minutes, pH 8.0; read-out: Human COX II ID50
T1 construct: made in house; host or cells: SF9 insect cells, recombinant baculovirus (transfer vector pVL1393)
T1 sequence (P35354 18-604): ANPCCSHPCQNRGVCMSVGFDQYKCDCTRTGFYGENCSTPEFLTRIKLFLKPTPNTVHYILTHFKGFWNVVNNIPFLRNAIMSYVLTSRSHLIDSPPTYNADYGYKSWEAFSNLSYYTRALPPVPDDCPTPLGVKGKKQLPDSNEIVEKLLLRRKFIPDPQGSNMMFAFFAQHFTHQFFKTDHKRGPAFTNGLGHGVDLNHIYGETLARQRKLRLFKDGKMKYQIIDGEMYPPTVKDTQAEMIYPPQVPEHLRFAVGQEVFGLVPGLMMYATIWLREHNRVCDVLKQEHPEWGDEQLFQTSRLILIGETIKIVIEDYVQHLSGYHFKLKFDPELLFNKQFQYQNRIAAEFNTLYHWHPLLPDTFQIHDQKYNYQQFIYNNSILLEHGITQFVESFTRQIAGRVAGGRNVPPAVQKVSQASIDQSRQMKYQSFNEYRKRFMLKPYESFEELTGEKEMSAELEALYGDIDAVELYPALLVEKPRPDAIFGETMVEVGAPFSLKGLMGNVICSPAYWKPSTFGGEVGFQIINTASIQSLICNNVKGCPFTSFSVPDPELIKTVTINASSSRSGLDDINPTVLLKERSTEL
Experimental: (§1) Evaluation of COX I and COX II activity in vitro
The COX II inhibition activity of the compounds of this invention illustrated in the Examples was determined by the following methods.
(§2) a. Preparation of recombinant COX baculoviruses
(§3) A 2.0 kb fragment containing the coding region of either human or murine COX-I or human or murine COX-II was cloned into a BamH1 site of the baculovirus transfer vector pVL1393 (Invitrogen) to generate the baculovirus transfer vectors for COX-I and COX-II in a manner similar to the method of D. R. O'Reilly et al (Baculovirus Expression Vectors: A Laboratory Manual (1992)). Recombinant baculoviruses were isolated by transfecting 4 μg of baculovirus transfer vector DNA into SF9 insect cells ([…]) along with 200 ng of linearized baculovirus plasmid DNA by the calcium phosphate method. See M. D. Summers and G. E. Smith, A Manual of Methods for Baculovirus Vectors and Insect Cell Culture Procedures, Texas Agric. Exp. Station Bull. 1555 (1987). Recombinant viruses were purified by three rounds of plaque purification and high titer (10E7-10E8 pfu/ml) stocks of virus were prepared. For large scale production, SF9 insect cells were infected in 10 liter fermentors (0.5×10^6 /ml) with the recombinant baculovirus stock such that the multiplicity of infection was 0.1. After 72 hours the cells were centrifuged and the cell pellet homogenized in Tris/Sucrose (50 mM: 25%, pH 8.0) containing 1% 3-[(3-cholamidopropyl)dimethylammonio]-1-propanesulfonate (CHAPS). The homogenate was centrifuged at 10,000'G for 30 minutes, and the resultant supernatant was stored at -80° C. before being assayed for COX activity.
(§4) b. Assay for COX I and COX II activity:
(§5) COX activity was assayed as PGE2 formed/μg protein/time using an ELISA to detect the prostaglandin released. CHAPS-solubilized insect cell membranes containing the appropriate COX enzyme were incubated in a potassium phosphate buffer (50 mM, pH 8.0) containing epinephrine, phenol, and heme with the addition of arachidonic acid (10 μM). Compounds were pre-incubated with the enzyme for 10-20 minutes prior to the addition of arachidonic acid. Any reaction between the arachidonic acid and the enzyme was stopped after ten minutes at 37° C./room temperature by transferring 40 μl of reaction mix into 160 μl ELISA buffer and 25 μM indomethacin. The PGE2 formed was measured by standard ELISA technology (Cayman Chemical).

[2] = biological target: T2, Human COX I (Homo sapiens, UniProt P23219); assay: Evaluation of COX I activity in vitro (recombinant enzyme, PGE2 ELISA); type: biochemical; details: 10 μM arachidonic acid, pre-incubation 10-20 minutes, pH 8.0; read-out: Human COX I ID50
T2 construct: made in house; host or cells: SF9 insect cells, recombinant baculovirus (transfer vector pVL1393)
Description: as §1, §2, §3, §4, §5

T2 sequence (P23219 24-599): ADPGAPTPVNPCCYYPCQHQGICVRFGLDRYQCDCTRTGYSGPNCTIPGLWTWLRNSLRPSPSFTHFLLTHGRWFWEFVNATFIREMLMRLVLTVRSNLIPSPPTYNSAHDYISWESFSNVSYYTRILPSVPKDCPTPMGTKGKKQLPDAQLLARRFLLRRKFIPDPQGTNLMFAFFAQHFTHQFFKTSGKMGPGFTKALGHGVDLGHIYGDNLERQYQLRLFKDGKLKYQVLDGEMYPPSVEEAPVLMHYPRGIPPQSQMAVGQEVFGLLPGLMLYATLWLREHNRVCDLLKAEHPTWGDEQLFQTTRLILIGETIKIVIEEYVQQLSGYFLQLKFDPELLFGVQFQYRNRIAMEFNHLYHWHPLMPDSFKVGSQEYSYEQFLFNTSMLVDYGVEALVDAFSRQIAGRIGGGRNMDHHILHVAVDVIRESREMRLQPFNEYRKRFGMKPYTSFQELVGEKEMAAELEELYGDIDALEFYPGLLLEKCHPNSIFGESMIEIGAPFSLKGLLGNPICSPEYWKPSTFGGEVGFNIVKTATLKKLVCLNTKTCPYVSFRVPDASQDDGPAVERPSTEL

IC50 [1] | IC50 [2] | SMILES
< 0.1 µM | 2.7 µM | COc1ccc2c(c1F)CSc1c(C(F)(F)F)nn(-c3ccc(S(N)(=O)=O)cc3)c1-2 [Example 1, 4-[1,5-Dihydro-6-fluoro-7-methoxy-3-(trifluoromethyl)-[2]benzothiopyrano[4,3-c]pyrazol-1-yl]benzenesulfonamide]
1.3 µM |  | NS(=O)(=O)c1ccc(-n2nc(C(F)(F)F)c3c2-c2ccccc2OC3)cc1 [Example 3, 4-[1,4-Dihydro-3-(trifluoromethyl)-[1]benzopyrano[4,3-c]pyrazol-1-yl]benzenesulfonamide]
0.5 µM |  | COC(=O)c1nn(-c2ccc(S(N)(=O)=O)cc2)c2c1COc1ccccc1-2 [Example 4, Methyl[1-[4-(aminosulfonyl)phenyl]-1,4-dihydro-[1]benzopyrano[4,3-c]pyrazol-3-yl]carboxylate]
4.8 µM | 24.4 µM | NS(=O)(=O)c1ccc(-n2nc(C(F)(F)F)c3c2-c2cc(F)ccc2OC3)cc1 [Example 5, 4-[1,4-Dihydro-8-fluoro-3-(trifluoromethyl)-[1]benzopyrano[4,3-c]pyrazol-1-yl]benzenesulfonamide]
23.5 µM | 11.1 µM | NS(=O)(=O)c1ccc(-n2nc(C(F)(F)F)c3oc4ccccc4c32)cc1 [Example 6, 4-[3-(Trifluoromethyl)-1H-benzofuro[3,2-c]pyrazol-1-yl]benzenesulfonamide]
0.5 µM |  | COC(=O)c1nn(-c2ccc(S(N)(=O)=O)cc2)c2c1CSc1ccccc1-2 [Example 8, Methyl[1-[(4-aminosulfonyl)phenyl]-1,4-dihydro-[1]benzothiopyrano[4,3-c]pyrazol-3-yl]carboxylate]
48.2 µM | > 100 µM | NS(=O)(=O)c1ccc(-n2nc(C(F)(F)F)c3c2-c2ccc(Cl)c(Cl)c2SC3)cc1 [Example 9, 4-[6,7-Dichloro-1,4-dihydro-3-(trifluoromethyl)-[1]benzothiopyrano[4,3-c]pyrazol-1-yl]benzenesulfonamide]
< 0.1 µM | 6.2 µM | NS(=O)(=O)c1ccc(-n2nc(C(F)(F)F)c3c2-c2ccc(F)cc2SC3)cc1 [Example 10, 4-[1,4-Dihydro-7-fluoro-3-(trifluoromethyl)-[1]benzothiopyrano[4,3-c]pyrazol-1-yl]benzenesulfonamide]
52 µM | > 100 µM | CC(C)c1cccc2c1SCc1c(C(F)(F)F)nn(-c3ccc(S(N)(=O)=O)cc3)c1-2 [Example 11, 4-[1,4-Dihydro-6-isopropyl-3-(trifluoromethyl)-[1]benzothiopyrano[4,3-c]pyrazol-1-yl]benzenesulfonamide]
95 µM | > 100 µM | COc1cc2c(cc1OC)-c1c(c(C(F)(F)F)nn1-c1ccc(S(N)(=O)=O)cc1)CS2 [Example 12, 4-[1,4-Dihydro-7,8-dimethoxy-3-(trifluoromethyl)-[1]benzothiopyrano[4,3-c]pyrazol-1-yl]benzenesulfonamide]
< 0.1 µM | < 0.1 µM | COc1ccc2c(c1)SCc1c(C(F)(F)F)nn(-c3ccc(S(N)(=O)=O)cc3)c1-2 [Example 13, 4-[1,4-Dihydro-7-methoxy-3-(trifluoromethyl)-[1]benzothiopyrano[4,3-c]pyrazol-1-yl]benzenesulfonamide]
0.2 µM | 4.6 µM | Cc1ccc2c(c1)SCc1c(C(F)(F)F)nn(-c3ccc(S(N)(=O)=O)cc3)c1-2 [Example 14, 4-[1,4-Dihydro-7-methyl-3-(trifluoromethyl)-[1]benzothiopyrano[4,3-c]pyrazol-1-yl]benzenesulfonamide]
< 0.1 µM | 0.3 µM | NS(=O)(=O)c1ccc(-n2nc(C(F)(F)F)c3c2-c2ccc(Cl)cc2SC3)cc1 [Example 15, 4-[7-Chloro-1,4-dihydro-3-(trifluoromethyl)-[1]benzothiopyrano[4,3-c]pyrazol-1-yl]benzenesulfonamide]
< 0.1 µM |  | NS(=O)(=O)c1ccc(-n2nc(C(F)(F)F)c3c2-c2ccccc2CS3)cc1 [Example 16, 4-[1,5-Dihydro-3-(trifluoromethyl)-[2]benzothiopyrano[4,3-c]pyrazol-1-yl]benzenesulfonamide]
< 0.1 µM | 0.8 µM | Cc1ccc2c(c1)CSc1c(C(F)(F)F)nn(-c3ccc(S(N)(=O)=O)cc3)c1-2 [Example 17, 4-[1,5-Dihydro-7-methyl-3-(trifluoromethyl)-[2]benzothiopyrano[4,3-c]pyrazol-1-yl]benzenesulfonamide]
< 0.1 µM | 3.7 µM | Cc1ccc2c(c1)CSc1c(C(F)(F)F)nn(-c3ccc(S(C)(=O)=O)cc3)c1-2 [Example 18, 1,5-Dihydro-1-[4-(methylsulfonyl)phenyl]-7-methyl-3-(trifluoromethyl)-[2]benzothiopyrano[4,3-c]pyrazole]
< 0.1 µM | 0.3 µM | NS(=O)(=O)c1ccc(-n2nc(C(F)(F)F)c3c2-c2ccc(Cl)cc2CS3)cc1 [Example 19, 4-[7-Chloro-1,5-dihydro-3-(trifluoromethyl)-[2]benzothiopyrano[4,3-c]pyrazol-1-yl]benzenesulfonamide]
< 0.1 µM | < 0.1 µM | COc1ccc2c(c1)CSc1c(C(F)(F)F)nn(-c3ccc(S(N)(=O)=O)cc3)c1-2 [Example 20, 4-[1,5-Dihydro-7-methoxy-3-(trifluoromethyl)-[2]benzothiopyrano[4,3-c]pyrazol-1-yl]benzenesulfonamide]
3.5 µM | 51 µM | N#Cc1nn(-c2ccc(S(N)(=O)=O)cc2)c2c1CSc1ccccc1-2 [Example 22, 1-[4-(Aminosulfonyl)phenyl]-1,4-dihydro-[1]benzothiopyrano[4,3-c]pyrazol-3-carbonitrile]
45.6 µM | 91.1 µM | NS(=O)(=O)c1ccc(-n2nc(C(F)(F)F)c3c2-c2cc(Cl)sc2C[S+]3[O-])cc1 (stereo not shown) [Example 24, 4-[7-chloro-1,5-dihydro-3-trifluoromethyl-thieno[3',2':4,5]thiopyrano-s-oxide[3,2-c]pyrazol-1-yl]benzenesulfonamide]
< 0.1 µM | > 100 µM | COc1ccc2c(c1F)CSc1c(C(F)F)nn(-c3ccc(S(N)(=O)=O)cc3)c1-2 [Example 25, 4-[3-(difluoromethyl)-1,5-dihydro-6-fluoro-7-methoxy-[2]benzothiopyrano[4,3-c]pyrazol-1-yl]benzenesulfonamide]
< 0.1 µM | 0.3 µM | NS(=O)(=O)c1ccc(-n2nc(C(F)(F)F)c3c2-c2ccc(F)cc2CS3)cc1 [Example 26, 4-[1,5-dihydro-7-fluoro-3-(trifluoromethyl)-[2]benzothiopyrano[4,3-c]pyrazol-1-yl]benzenesulfonamide]
4.7 µM | > 100 µM | NC(=O)c1nn(-c2ccc(S(N)(=O)=O)cc2)c2c1SCc1cc(F)ccc1-2 [Example 27, [1-(4-aminosulfonylphenyl)-1,5-dihydro-7-fluoro-[2]benzothiopyrano[4,3-c]pyrazol-3-yl]carboxamide]
1.2 µM | > 100 µM | COc1ccc2c(c1F)C[S+]([O-])c1c(C(F)(F)F)nn(-c3ccc(S(N)(=O)=O)cc3)c1-2 (stereo not shown) [Example 28, 4-[1,5-dihydro-6-fluoro-7-methoxy-3-(trifluoromethyl)-[2]benzothiopyrano-S-oxide[4,3-c]pyrazol-1-yl]benzenesulfonamide]
0.8 µM | 13.2 µM | COC(=O)c1nn(-c2ccc(S(N)(=O)=O)cc2)c2c1SCc1cc(F)ccc1-2 [Example 29, methyl[1-(4-aminosulfonylphenyl)-1,5-dihydro-7-fluoro-[2]benzothiopyrano[4,3-c]pyrazol-3-yl]carboxylate]
